Measured values taken from patent US20130072506A1, “6,8-DISUBSTITUTED PURINE COMPOSITIONS” (priority 2011, published 2013).

Columns and labels:
[1] = system: cytokinin-dependent tobacco callus; test: Growth of cytokinin-dependent tobacco callus (plant cell division); format: cell-based, Nicotiana tabacum L. cv. Wisconsin 38; details: at concentration with highest activity; activity of kinetin set at 100%
Protocol: The effect on plant cell division. Cytokinin-dependent tobacco callus Nicotiana tabacum L. cv. Wisconsin 38 was maintained at 25° C. in darkness on modified MS medium, containing 4 μmol/l nicotinic acid, 2.4 μmol/l pyridoxine hydrochloride, 1.2 μmol/l thiamine, 26.6 μmol/l glycine, 1.37 μmol/l glutamine, 1.8 μmol/1 myo-inositol, 30 g/l of sucrose, 8 g/l of agar, 5.37 μmol/l NAA and 0.5 μmol/l BAP. Subcultivation was carried out every three weeks. Fourteen days before the bioassay, the callus tissue was transferred to the media without BAP. Biological activity was determined from the increase in fresh callus weight after four weeks of cultivation. Five replicates were prepared for each cytokinin concentration and the entire test was repeated twice. From the obtained data, the concentration with highest activity was selected for each compound tested. Relative activity at this concentration was calculated (see Table 4 below).
The cytokinins to be tested were dissolved in dimethylsulfoxide (DMSO) and the solution brought up to 10^−3M with distilled water.

[2] = system: human skin fibroblast line ASF-2; test: Cell attachment of human skin fibroblasts; format: cell-based; details: six hours of treatment, 40 to 500 μM
Protocol: A) Growth characteristics: • (1) Cell attachment frequency: to rule out immediate toxicity; • (2) Cell survival: to rule out delayed toxicity; • (3) Growth rates: to determine cell division stimulatory/inhibitory potential;
Experimental Procedures. A stock solution of 4 mM for 6-furfurylamino-8-aminopurine and 8 mM for other compounds were prepared by dissolving about […] per ml 1N HCl, followed by its appropriate dilution by the addition of Hank's buffer. The stock solution was filter sterilized, stored at 4° C., and was used for experiments by dilution it in the cell culture medium as required.
(§1) All cell culture experiments were performed on early and mid passage cultures (about 20 to 40% lifespan completed) of normal human skin fibroblast line, designated ASF-2. In order to check the effects of test compounds on senescent cells, late passage cells with more than 90% lifespan completed were used. ASF-2 cell line was established from a mammary skin biopsy obtained from a young, non-smoking and healthy […] at the time of breast reduction operation. Normal culture conditions of medium (DMEM) containing antibiotics, 10% foetal calf serum, and incubation at 37° C. with 95% humidity were used. The effects of the test compounds were determined using the following procedures.

[3] = system: human skin fibroblast line ASF-2; test: Cell survival and toxicity (MTT assay); format: cell-based
Protocol: as §1
Cell survival, toxicity, and JC-1 staining. Cell survival after exposure to various doses of the test compounds was measured with the 3-(4,5 dimethylthiazol-2-yl)-2,5-diphenyltetrazolium bromide (MTT) assay. About 5,000 cells were seeded per well in a 96-well plate 24 h before the experiment. Cells were then treated with various doses of the compound to be tested. The wells were washed in Hank's and new medium was added. After three days, MTT (Sigma, M2128) was added at 0.5 mg/ml in medium. After 4 h, MTT was collected and then dissolved in isopropanol and HCl over a 12-16 h period. The absorbance at 595 nm was measured.

proteasome = test: Proteasomal activity (chymotrypsin-like) in cell extracts; format: cell-based, human; details: 40 μM-200 μM
Protocol: as §1
Proteasomal activity. Chymotrypsin-like activity in cell extracts prepared from treated and untreated cells was determined by in vitro degradation of oligopeptides by the proteasome.

[4] = system: Salmonella typhimurium histidien auxotrophs TA98 and TA100; test: Ames test; format: cell-based; details: 2.5-5000 μg/plate, presence and absence of Aroclor-induced rat liver S9
Protocol: Ames Test. A number of tests related to the safety of these inventive compounds have been carried out using conventionally accepted protocols and procedures. Tests were carried out using DMSO as solvent and dose levels of 8-amino-6-furfurylaminopurine at 2.5, 5.0, 15, 50, 500, 1500, and 5000 μg/plate based upon standard protocol and procedures (Ames et al., Mutation Research, 31, 347-364 (1975); Maron et al., Mutation Research, 113, 173-215 (1983)).

SKH-1 hairless mice = test: Hairless mouse assay: epidermal bromodeoxyuridine (BrdU) staining; format: in vivo
Text: This study determined the effect of topical compound formulations on epidermal cell proliferation using bromodeoxyuridine as an immunohistochemical marker of cell proliferation. Histological examination of the treated and control skin were used to determine cutaneous effects of the topical compounds. Topical tretinoin 0.05% (Renova™) was used as a therapeutic control.
Experimental Design. 48 female SKH-1 hairless mice (5 weeks old, 20-25 grams, Charles River Laboratories, Wilmington, Mass.) are individually housed in filter-top cages, and acclimated for 5-7 days after delivery. The mice are divided into 8 treatment groups (n=6), including two different control groups (untreated control, vehicle control) and a therapeutic control (tretinoin 0.05% Renova™ cream). Cage cards are marked to indicate treatment groups 1-8. Water and mouse chow are provided ad libitum.
Topical Treatments. Beginning on Treatment Day 1, test products are applied topically each morning (Monday through Friday) after erythema evaluations for 3 weeks. Using a positive displacement pipette, 20 mg of each agent is applied to a 2 cm×2 cm area of the center midline of the back. The material was spread across the treatment area with the pipette tip.
Bromodeoxyuridine Injection. All animal groups are injected with bromodeoxyuridine (100 mg/kg) I.P. 4 hours after the final application. Animals are sacrificed by CO2 inhalation 3 hours later followed by cervical dislocation. The test sites are excised, and 6 mm punch biopsies are obtained from each treatment site, and from untreated controls. Biopsies are placed into labeled vials containing 4% neutral buffered formalin for paraffin embedding and anti-BrdU staining.
Bromodeoxyuridine Immunohistochemical Staining. Paraffin sections are cut to a […] thickness and stained using the BrdU Immuno-histochemistry kit (X1545K from Exalpha Biologicals, Inc.) and a standard staining protocol. The slides are weakly counterstained in Mayer's hematoxylin and scored under a light microscope for the number of BrdU-positive cells per mm of epidermis for each section. The data are expressed as mean BrdU-positive cells/mm for each treatment group. Differences in BrdU labeling in the treatment groups are statistically analyzed using the Students t-test. Representative photographs are taken of the histological sections of the BrdU-positive staining cells.

SMILES: Nc1nc2c(NCc3ccco3)ncnc2[nH]1 [Compound 82, 6-furfurylamino-8-aminopurine]
- Activity (%) [1]: 150.10%
- Percent of cells attached [2]: not affected to any significant extent
- reduction in survival ([3]; 100 μM, MTT): 15%
- cell survival ([3]; 500 μM, MTT): reduction in cell survival
- toxic effects (MTT) ([3]; young fibroblasts, until a dose of 100 μM): little toxic effects
- improvement in the proteasomal activity (proteasome): 5-10%
- inhibition of chymotrypsin-like proteasomal activity (proteasome; compared to untreated): no inhibition
- mutagenic responses [4]: no positive mutagenic responses
- epidermal BrdU staining (SKH-1 hairless mice; after 3 weeks of topical treatment): more effective
- Mean Nuclei Stained (SKH-1 hairless mice; epidermal BrdU staining after 3 weeks of topical treatment, 0.1% (tretinoin 0.05%)): 12.8 ± 13.3
